Here are results for 1 substance from US7371364B2, “Cyclic peptide and imaging compound compositions and uses for targeted imaging and therapy” (Board of Regents, The University of Texas System, priority 2003, dated 2008).

Positions of bridges follow the written chain, without caps; N, C: chain ends. Cy5.5 = cyanine near-infrared dye Cy5.5, conjugated via its NHS ester to the amino group

One assay relates to human tumor cells. The assay is described as follows: In vitro tumor cell binding study (fluorescence microscopy). In kind it is cell-based. Here is the method: All human tumor cell-lines were obtained from American Type Culture Collection (Rockville, Md.) and were maintained at 37° C. in a humidified atmosphere containing 5% CO2 in Dulbecco's Modified Eagle's Medium/Nutrient Mixture F-12 Ham (DMEM/F12) and 10% FBS (Gibco, Grand Island, N.Y.).
Cells were seeded on cover slips in 24-well plates (Becton Dickinson Labware, Franklin Lakes, N.J.) and incubated in DMEM/F12 culture medium (0.5 ml/well) overnight. Cy5.5 and Cy5.5-HWG polypeptide imaging agents were added into each well at the indicated concentrations. For the blocking study, doxycycline was added to the culture medium followed by the addition of Cy5.5-HWG polypeptide imaging agent 1 hour later. After an incubation period of 5-60 minutes at 37° C., cells were washed twice with PBS and incubated in a solution of Sytox Green in 95% ethyl alcohol (1 μM, Molecular Probe, Eugene, Oreg.) for 15 minutes to fix and stain cell nuclei. For staining of MMP expression, cells that were pretreated with Cy5.5-HWG polypeptide and stained with Sytox Green were incubated with anti-MMP antibody (Sigma) (1 mg/ml; 1:200 dilution) for 1 hour at room temperature. The cells were then washed and incubated with Texas Red conjugated go at anti-rabbit IgG (Molecular Probe, 4 μg/ml) at room temperature for 1 hour. Cells were washed again with PBS and the cover slips were mounted for microscopic examination using a DMR microscope (Leica Microsystems, Inc., Brannockburn, Ill.). The microscope was equipped with a 75W Xenon lamp, 775 nm/845 nm, 560 nm/645 nm, and 480 nm/535 nm (Excitation/emission) filters (Chroma Technology Corp., Brattleboro, Vt.), a Hamamatsu B/W Chilled CCD camera (Hamamatsu Photonics K.K., Hamamatsu City, Japan), and Image-Pro Plus 4.5.1 software (Media Cybernetics, Silver Spring, Md.). In the multiple staining images, Cy5.5, MMPs, and Sytox Green were pseudocolored red, green, and blue, respectively.

For assay [1], the system named is intratibia PC-3 prostate tumors. Briefly: In vivo NIR fluorescent imaging with HWG imaging agent. Details: species or system mice. Here is the method: Four to six week-old athymic nude mice (18-22 g, Harlan Sprague Dawley, Inc., Indianapolis, Ind.) were housed 5 per cage with sterilized pet chow (Harlan Sprague Dawley) and sterilized water. Animals were maintained in a pathogen-free mouse colony in the Department of Veterinary Medicine at the University of Texas M.D. Anderson Cancer Center. All experiments were performed in accordance with the guidelines of the Institutional Animal Care and Use Committee. Tumor cells were harvested near confluence by incubation with 0.05% trypsin-EDTA. Cells were pelleted by centrifugation at 450×g for 5 minutes and resuspended in sterile PBS. Cells (2-3×10^6/animal) were implanted subcutaneously into the chest wall or the hind legs of the mice. Human PC-3 prostate tumors were obtained by intratibia injection of PC-3 cells into male nude mice. Human U87 glioma tumors were obtained by intracranial injection. In vivo fluorescence imaging was accomplished by illuminating the animal with light from a laser diode (785 nm, 80 mW for IGC; 660 nm, 35 mW for Cy 5.5 dyes) expanded to an approximate 8 cm diameter circular area. The re-emitted fluorescent light was collected by an image intensifier (model F[…], ITT Night Vision, Roanoke, Va.) lens-coupled to a CCD camera (model CH350, Photometrics, Tucson, Ariz.). The imaging was designed so that the field of view could be varied from 3×3 cm to over 12×12 cm by varying the image distance of the 50 mm lens used to focus the image onto the photocathode of the intensifier. The lens was fitted with a holographic notch-plus filter (785 nm center wavelength for ICG and 660 nm center wavelength for Cy5.5 dyes; Kaiser Optical Systems, Inc., Ann Arbor, Mich.) and a bandpass filter (830 nm center wavelength for ICG, 710 nm center wavelength for Cy5.5 dyes) to reject back-scattered and reflected excitation photons. Image acquisition was accomplished using V++ software (Digital Optics, Auckland, New Zealand) and obtained images were stored in uncompressed tagged image file format (tiff). […]

The test system of another assay is SKBr-3 tumors. The description is as above. Also on record: species or system mice. To be noted: 4 days after i.v. injection, 15 nmol per mouse. Here is the method:
(§1) Four to six week-old athymic nude mice (18-22 g, Harlan Sprague Dawley, Inc., Indianapolis, Ind.) were housed 5 per cage with sterilized pet chow (Harlan Sprague Dawley) and sterilized water. Animals were maintained in a pathogen-free mouse colony in the Department of Veterinary Medicine at the University of Texas M.D. Anderson Cancer Center. All experiments were performed in accordance with the guidelines of the Institutional Animal Care and Use Committee. Tumor cells were harvested near confluence by incubation with 0.05% trypsin-EDTA. Cells were pelleted by centrifugation at 450×g for 5 minutes and resuspended in sterile PBS. Cells (2-3×10^6/animal) were implanted subcutaneously into the chest wall or the hind legs of the mice. Human PC-3 prostate tumors were obtained by intratibia injection of PC-3 cells into male nude mice. Human U87 glioma tumors were obtained by intracranial injection.
(§2) In vivo fluorescence imaging was accomplished by illuminating the animal with light from a laser diode (785 nm, 80 mW for IGC; 660 nm, 35 mW for Cy 5.5 dyes) expanded to an approximate 8 cm diameter circular area. The re-emitted fluorescent light was collected by an image intensifier (model FS9910C, ITT Night Vision, Roanoke, Va.) lens-coupled to a CCD camera (model CH350, Photometrics, Tucson, Ariz.). The imaging was designed so that the field of view could be varied from 3×3 cm to over 12×12 cm by varying the image distance of the 50 mm lens used to focus the image onto the photocathode of the intensifier. The lens was fitted with a holographic notch-plus filter (785 nm center wavelength for ICG and 660 nm center wavelength for Cy5.5 dyes; Kaiser Optical Systems, Inc., Ann Arbor, Mich.) and a bandpass filter (830 nm center wavelength for ICG, 710 nm center wavelength for Cy5.5 dyes) to reject back-scattered and reflected excitation photons. Image acquisition was accomplished using V++ software (Digital Optics, Auckland, New Zealand) and obtained images were stored in uncompressed tagged image file format (tiff). Data processing and analysis was accomplished using Matlab software (The Math Works, Inc., Natick, Mass.).

Another assay has as its system HT1080 tumor. Described as above. Details: species or system mice. To be noted: subcutaneous HT1080 tumor, 27 hours after i.v. injection, 15 nmol/mouse. Here is the method: as §1, §2
Another assay concerns KS1767 tumors. The assay is described as above. Also on record: species or system mice. To be noted: subcutaneous KS1767 tumors, 15 nmol per mouse. Here is the method:
as §1, §2

The next assay relates to human glioma U87 tumor. The assay is described as above. Details: species or system mice. Here is the method: as §1, §2
A further assay concerns MDA-MB-468 tumors. The description is as above. Also on record: species or system mice. To be noted: subcutaneous MDA-MB-468 tumors, 15 nmol per mouse. Here is the method:
as §1, §2

Turning to “Cy5.5-c(KAHWGFTLD)NH2 ({Cy5.5}-KAHWGFTLD-NH2; lactam 1-9)”, the “Binding to tumor cells” value in the assay with human tumor cells (SKBr-3, HT1080, MDA-MB-435, MDA-MB-468, U87 (PC-3 and U87 for the Tyr analogue), 37° C.) is “bound”. In addition, the “Co-localization with MMPs (MMP-2, MMP-8, MMP-9 staining)” value with human tumor cells (all cell lines tested) is “co-localized with MMPs”. Besides, the “Fluorescent signal in contra lateral tibia region preinjected with saline” value in assay [1] (control leg, i.v. injection of imaging agent) is recorded as “no fluorescent signal was detected”. Also, the “Visualization of small tumor in NIR image” value in assay [1] (intratibia PC-3, no lesion by X-ray, 3 days after inoculation, 24 and 48 hours after injection) is recorded as “clearly visualized”; in the assay on human glioma U87 tumor (subcutaneous U87, lesion less than 2 mm, 3 days after inoculation, 24 and 48 hours after injection) it was “clearly visualized”. Besides, the “Presence of tumors shown in NIR images (specificity versus scrambled peptide)” value in assay [1] (intratibia PC-3 inoculated 3 days earlier, images 24 hours after injection) is “clearly showed the presence of tumors”. Moreover, the “Fluorescent signal in tumor” value with SKBr-3 tumors is listed as “strong fluorescent signal”. The “Visualization of tumor in NIR image” value was “clearly visualized with minimal background signal” in the assay on HT1080 tumor, “clearly visualized” with KS1767 tumors and “clearly visualized” in the assay on MDA-MB-468 tumors. For the same substance, in the assay with human glioma U87 tumor (intracranial U87, tumor 3-4 mm, 12 days after inoculation, 38 hours after injection, intact animal and excised brain), the “Binding and retention in the tumor (NIR image)” value is “clearly depicted”.
